Key:
PBMCs = assay: Cytokine release from PHA-stimulated PBMCs; format: cell-based, human; settings: 1, 2.5, and 5 μM, 18 h
Procedure: Human PBMCs from healthy donors were isolated from heparinized blood by density gradient centrifugation with Ficoll-Paque. The isolated cells were washed twice with PBS, resuspended in RPMI 1640 medium (Sigma-Aldrich, St. Louis, MO, USA) supplemented with 10% heat-inactivated fetal bovine serum (Gibco), 2 mM L-glutamine (Sigma-Aldrich), 100 U/mL penicillin (Sigma-Aldrich), and 100 μg/mL streptomycin (Sigma-Aldrich), and used in the assays.
Peripheral blood mononuclear cells were seeded (500,000 cells/well) in 24-well plates in 500 μL of growth medium and treated with compounds 94, 95, and neflamapimod (1, 2.5, and 5 μM) in the presence or absence of PHA (1 μg/mL) or the corresponding vehicle (0.1% DMSO). Cell-free supernatants were collected after 18 h of incubation (37 °C, 5% CO2) and stored at −80 °C until tested. Cytokine production was determined with BD Cytometric Bead Array human inflammatory cytokines kit (BD Bioscience) on an Attune NxT flow cytometer (Thermo Fisher Scientific, Waltham, MA, USA). Standard curves were generated using recombinant cytokines contained in the kit. The data were analyzed using the FlowJo (Tree Star, Inc., Ashland, OR, USA) and Prism (GraphPad Prism 6.0, GraphPad Software) software.

[1] = system: mice (motor coordination); assay: Rotarod test; settings: 6, 18, and 24 rpm; all mice of the group
Procedure: For behavioral tests, the mice were selected randomly; each group consisted of 7–10 mice.
In the rotarod, locomotor activity, and MWM tests, only one dose effective in the scopolamine model of amnesia was evaluated.
Three days before the rotarod test, the mice were trained on the rotarod apparatus (Rotarod apparatus, May Commat RR0711, Turkey; rod diameter: 2 cm) that was rotated at a fixed speed of 18 rpm. In each training session, the mice were placed on the rotating rod for 3 min with an unlimited number of trials. The proper experiment was performed 24 h after the last training trial. […] Motor impairments in mice were defined as the inability to remain on the rotarod apparatus for 1 min. The results are expressed as the mean time spent on the rotarod.

[2] = system: scopolamine-induced cognitive deficits in mice; assay: Passive avoidance task, scopolamine-induced amnesia; format: in vivo; settings: 1–30 mg/kg i.p.
Description: (§1) In the scopolamine model, the PA and NOR tasks were used for dose selection for further testing.
The mice had unlimited access to food and water prior to the experiment. Specified conditions for the maintenance of mice were ensured throughout the experiment, including tree bedding (Transwior, Poland) and cage enrichment (tunnels, nesting material, wooden igloos, etc.). For behavioral tests, the mice were selected randomly; each group consisted of 7–10 mice.
(§2) Scopolamine hydrobromide (Sigma-Aldrich, Poland) at the dose of 1 mg/kg was used to induce learning and memory deficits. For the in vivo tests, scopolamine was prepared in distilled water (Polfa Kutno, Poland) and was administered subcutaneously (s.c.) 30 min before behavioral tests during the acquisition (training) trial of PA and NOR tasks. […] They were administered intraperitoneally (i.p.) 60 min before the acquisition trial of the PA, NOR, and MWM tasks.
The PA apparatus (Panlab Harvard Apparatus, Spain) consists of a large white-colored illuminated compartment (26 cm × 26 cm × 34 cm) and a small black-colored compartment (13 cm × 7.5 cm × 7.5 cm), which are separated from each other by a guillotine gate (5 cm × 5 cm). The PA task is divided into two trials (i.e., the acquisition trial and the retention trial), each conducted 24 h apart. On the first day, during the acquisition trial (a conditioning phase), the test compounds (94 and 95, neflamapimod and vehicle) were injected. Also, before the acquisition trial, scopolamine or LPS was administered at selected time points. Then, each mouse was placed into the white compartment, and a 30 s habituation period began (guillotine gate is closed). After that, the guillotine gate was opened, and the mice were tested during the 180 s testing period. As soon as the mouse entered the black compartment of the PA device, the guillotine gate was closed and an electrical shock (intensity: 0.2 mA, duration: 2 s) was automatically applied through the grid floor. For each mouse, the latency between the opening of the guillotine gate and the mouse’s entering the black compartment was measured. On the next day, during the retention (drug-off) trial, the mice were placed again into the white compartment for a 30 s habituation period, and the latency to enter the black compartment was measured for each mouse.

[3] = system: scopolamine-induced cognitive deficits in mice; assay: Novel object recognition task, scopolamine-induced amnesia; format: in vivo; settings: 1, 10, and 30 mg/kg i.p.; scopolamine model
Description: as §1
The mice had unlimited access to food and water prior to the experiment. Specified conditions for the maintenance of mice were ensured throughout the experiment, including tree bedding (Transwior, Poland) and cage enrichment (tunnels, nesting material, wooden igloos, etc.). For behavioral tests, the mice were selected randomly; each group consisted of 7–10 mice. […] The procedures for maintenance and treatment of laboratory animals were approved by the first Local Ethics Committee in Krakow (Approval No. 645/2022, 760/2023, and 829/2024 and the treatment of animals was in full accordance with ethical standards laid down in respective Polish and EU regulations (Directive 2010/63/EU).
as §2
The experiment was conducted in opaque black boxes with dimensions of 50 × 50 × 50 cm. The 3 day procedure consists of habituation to the test arena (without any objects) for 10 min on the first day (T0), a training trial (T1), and a testing trial (T2) separated by a 24 h intertrial interval. During T1 (familiarization trial), two identical objects (A and B) were presented in the opposite corners of the arena, approximately 5 cm from its walls. During T2 (recognition trial), one of the objects (B) was replaced by a novel object (C), so that the animals were presented with A (familiar) and C (novel) objects. Both T1 and T2 trials lasted for 10 min, and after each trial, the animals returned to their home cages. White plastic round containers (height 5 cm, diameter 5 cm) attached to the ground with double-sided tape were used as the A, B objects, and green cuboids of similar height were used as object C. The objects were stable enough so that the animals could not displace them. The sequence of presentations and the location of the objects were randomly assigned to each mouse. The animals explored the objects by looking, licking, sniffing, or touching them while sniffing, but not when leaning against, standing, or sitting on the objects. Any mouse exploring the two objects for less than 5 s within the 10 min duration of T1 or T2 was eliminated from the study. An experimenter, blind to the drug treatment, measured the exploration time of the objects.

[4] = system: mice (locomotor activity); assay: Locomotor activity test; settings: 30 mg/kg, i.p., mean ± SEM
Description: The mice had unlimited access to food and water prior to the experiment. Specified conditions for the maintenance of mice were ensured throughout the experiment, including tree bedding (Transwior, Poland) and cage enrichment (tunnels, nesting material, wooden igloos, etc.). For behavioral tests, the mice were selected randomly; each group consisted of 7–10 mice. […] After in vivo tests, the animals were immediately euthanized, and their tissues were collected and stored for further ex vivo testing.
They were administered intraperitoneally (i.p.) 60 min before the acquisition trial of the PA, NOR, and MWM tasks.
The locomotor activity test was performed using activity cages (40 cm × 40 cm × 30 cm, supplied with IR beam emitters) (Activity Cage 7441, Ugo Basile, Italy) connected to a counter for the recording of light-beam interrupts. […] The animals’ movements (i.e., the number of light-beam crossings) were counted during the next 60 min of the test. Before the experiment, the mice were habituated to activity cages for 15 min.

[5] = Pharmacokinetic study in mice
Procedure: In this study, male CD-1 mice weighing 27–34 g housed in conditions of constant temperature with a 12:12 h light-dark cycle with free access to food and water were used. Both tested and reference compounds were suspended in 1% Tween in water for injection (Polpharma, Poland) and administered intraperitoneally (i.p.). The mice were sacrificed by decapitation under isoflurane anesthesia at different time points following compound administration. Brains were harvested at the same time points. Blood was allowed to clot at room temperature for 20 min, and serum was separated by centrifugation at 8 000g (Eppendorf MiniSpin centrifuge, Germany) for 10 min. All samples were stored at −80 °C until analysis.
The analytical workflow employed a Sciex QTRAP 4500 triple quadrupole mass spectrometer interfaced with an Exion LC AC HPLC system (Danaher Corporation, USA). Chromatographic separation was achieved on an XBridge C18 column (3 × 50 mm, 5 μm; Waters, USA), utilizing a mobile phase composed of acetonitrile and water both containing 0.1% formic acid. The column temperature was maintained at 40 °C, and a gradient elution protocol (Table S10) was implemented to ensure optimal analyte resolution and retention times. Mass spectrometric detection was conducted in unit resolution mode, with ion transitions specified in Table S11. […] Valsartan served as the internal standard and was monitored at m/z 436 → 207 (collision energy = 42 eV). Positive electrospray ionization (ESI+) was employed to enhance detection sensitivity. Ion path parameters (Table S11) were optimized via direct infusion of analyte solutions (7 μL/min) using a syringe pump. The optimized source conditions included an ion spray voltage of 5500 V, a source temperature of 450 °C, curtain gas pressure at 20 psi, and medium collision gas pressure. […] No significant matrix effects or stability concerns were observed during routine sample analysis. Data acquisition and processing were carried out using Analyst software version 1.7.
Serial dilutions were performed to generate working solutions ranging from 0.01 to 20 μg/mL, corresponding to final calibration concentrations of 0.001–2 μg/mL. For calibration curve construction, 5 μL of each working solution was spiked into 45 μL of the relevant biological matrix (serum or brain homogenate) and vortexed for 10 s. Sample preparation involved protein precipitation, in a 1:3 (v/v) ratio, using acetonitrile containing 0.1% formic acid and the internal standard. The mixtures were agitated for 10 min using an IKA Vibrax VXR shaker (Germany), followed by centrifugation at 8000 × g for 5 min (Eppendorf miniSpin, Germany). The resulting supernatants were transferred to chromatographic vials for analysis.
Brain tissues were homogenized in distilled water at a 1:4 (w/v) ratio using an ULTRA-TURRAX T10 basic homogenizer (IKA, Germany). Aliquots of brain homogenate or serum (50 μL) were subjected to protein precipitation in a 1:3 (v/v) ratio with acetonitrile containing 0.1% formic acid and the internal standard. The mixtures were agitated for 10 min using an IKA Vibrax VXR shaker (Germany), followed by centrifugation at 8000 × g for 5 min (Eppendorf miniSpin, Germany). The resulting supernatants were directly transferred to chromatographic vials for analysis. In cases where analyte concentrations in serum exceeded 20 μg/mL, samples were diluted with blank matrix prior to the deproteinization step. The autosampler was maintained at 15 °C, and a 1 μL aliquot was injected onto the analytical column.
Pharmacokinetic parameters were estimated using the noncompartmental analysis (NCA). The maximum concentration (C max) and the time to reach maximum concentration (t max) in serum and brain were obtained directly from the concentration versus time data.

LPS-treated mice = assay: Morris water maze task, LPS model of neuroinflammation; format: in vivo
Procedure: The compounds were administered for 10 consecutive days, and on the last 6 days of their administration, LPS was also administered intraperitoneally 5 h before the test compounds. On these 6 days, the acquisition phase of the MWM task was performed. One day later, the retention, drug-off trial of the MWM task was carried out.
In the LPS model adult male C57BL/6J mice (Animal Breeding Farm of the Faculty of Pharmacy, Jagiellonian University Medical College) of similar weight and age were used. […] The mice had unlimited access to food and water prior to the experiment. Specified conditions for the maintenance of mice were ensured throughout the experiment, including tree bedding (Transwior, Poland) and cage enrichment (tunnels, nesting material, wooden igloos, etc.). For behavioral tests, the mice were selected randomly; each group consisted of 7–10 mice. […] After in vivo tests, the animals were immediately euthanized, and their tissues were collected and stored for further ex vivo testing.
LPS (Lipopolysaccharide from Escherichia coli O111:B4, Sigma-Aldrich, Poland) was used to induce neuroinflammation in mice. […] They were administered intraperitoneally (i.p.) 60 min before the acquisition trial of the PA, NOR, and MWM tasks. […] In the rotarod, locomotor activity, and MWM tests, only one dose effective in the scopolamine model of amnesia was evaluated.
The Morris water maze is a circular, plastic, and gray-painted pool (120 cm in diameter and 60 cm in height), filled with water (up to about 48 cm below the edge to prevent an animal from jumping out), maintained at 23 ± 1 °C. The pool was divided into four equal quadrants (compass locations: NE, NW, SE, SW) by a computerized video tracking system (SMART, ver. 3.0; Panlab, Spain). An escape platform (11 cm in diameter and 47 cm in height) at a fixed location (the center of the NW quadrant, i.e., the target quadrant) was made of transparent Plexiglas, being invisible to the swimming animal, and was immersed 1 cm under the surface of water. The maze was lighted with an intensity of 45 lx. […] The time taken to reach the hidden platform (escape latency) on days 1–6 was recorded for each mouse and analyzed. Each animal was released from a different starting point and was allowed to swim for 60 s. […] On the seventh day (a drug-off trial conducted 24 h after the last training trial), the platform was removed from the pool, and a probe trial was performed (without drug treatmentassessment of memory retention).

[6] = brain, neflamapimod 30 mg/kg i.p., mice
[7] = male, CD-1, mouse, brain, ip, 30 mg/kg
[8] = male, CD-1, mouse, serum, ip, 30 mg/kg
[9] = 10 mg/kg i.p., p < 0.05 vs LPS-treated control

SMILES: O=c1ncn2nc(Sc3ccc(F)cc3F)ccc2c1-c1c(Cl)cccc1Cl [neflamapimod, reference compound]
- production of pro-inflammatory cytokines IL-8, IL-1β, IL-6, IL-10, and TNF-α (PBMCs): significantly inhibited
- time spent on the rotarod [1]: 60 s
- effect on scopolamine-induced memory decline in PA task [2]: did not confirm memory-improving properties
- effect in NOR task [3]: did not reveal its memory-improving properties
- number of light-beam crossings [4]: 2481 ± 195
- AUC0-∞ [5, 6]: 755355.60 ng·min/mL(g)
- AUC(0-t) [5, 6]: 566796.70 ng·min/mL(g)
- t0.5λz [5, 6]: 1049.79 min
- Cmax [5, 7]: 2290 ng/g
- MRT [5, 7]: 16.7 h
- Tmax [5, 7]: 0.25 h
- k el [5, 7]: 1.1e-05 s⁻¹
- Kp ([5]; male, CD-1, mouse, brain/serum, ip, 30 mg/kg): 0.68
- half-life ([5]; male, CD-1, mouse, serum and brain, ip, 30 mg/kg): ~16.7 h
- AUC(0-inf) [5, 8]: 18700 ng·h/mL
- AUC(0-t) [5, 8]: 14400 ng·h/mL
- CL/F [5, 8]: 27 mL/min/kg
- Cmax [5, 8]: 4090 ng/mL
- MRT [5, 8]: 15.1 h
- Tmax [5, 8]: 0.25 h
- Vd/F [5, 8]: 37.8 L/kg
- k el [5, 8]: 1.18e-05 s⁻¹
- t0.5λz ([5]; serum, neflamapimod 30 mg/kg i.p., mice): 978.45 min
- time spent at the target zone (MWM day 7) (LPS-treated mice; [9]): increased
- time spent in the NW zone (MWM day 7) (LPS-treated mice; [9]): increased
- spatial learning, acquisition phase of MWM (LPS-treated mice; 10 and 30 mg/kg i.p., LPS-treated mice): effective in improving spatial learning only on day 3
